Test results taken from patent publication US20030199671A1, “Binding molecules for Fc-region polypeptides” (priority 2001, published 2003).
Read-outs that look alike come from different tables or passages of the source. Positions of bridges follow the written chain, without caps; N, C: chain ends. Residues, ends and D or L forms follow the SMILES beside them. code X = not defined here; Su = not defined here

Tests used:
human plasma IgG1 = molecular target: T1, human plasma IgG1 (Homo sapiens, UniProt P01857); experiment: Fluorescence anisotropy binding, Oregon Green labeled peptide
T1 construct: the individual human plasma IgG isoforms: IgG1, IgG2, IgG3, or IgG4; purchased Calbiochem; host or cells: human plasma
T1 sequence (P01857 1-330 isoform P01857-1): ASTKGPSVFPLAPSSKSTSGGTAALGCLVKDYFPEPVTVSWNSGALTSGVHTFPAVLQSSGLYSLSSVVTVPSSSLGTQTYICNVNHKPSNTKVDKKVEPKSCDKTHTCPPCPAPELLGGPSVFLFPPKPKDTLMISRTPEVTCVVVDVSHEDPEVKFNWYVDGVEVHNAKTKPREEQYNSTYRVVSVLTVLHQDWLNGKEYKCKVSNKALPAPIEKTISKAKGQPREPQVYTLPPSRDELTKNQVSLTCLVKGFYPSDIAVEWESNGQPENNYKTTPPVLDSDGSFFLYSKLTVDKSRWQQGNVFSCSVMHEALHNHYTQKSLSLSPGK
Method: (§1) Peptides were synthesized by BACHEM and then Oregon Green labeled and HPLC purified. Binding studies were performed using human plasma IgG isoforms: IgG1, IgG2, IgG3, and IgG4, obtained from Calbiochem.
(§2) Binding studies were carried out at either pH 4.0, 7.5, or 9.5, with or without salt in the following buffers:
(§3) 2) 10 mM Sodium Citrate, 500 mM Sodium Chloride, 0.01% Tween 20, pH 4.0;
(§4) 4) […], 500 mM Sodium Chloride, 0.01% Tween 20, pH 7.5;
(§5) 5) 10 mM Sodium Bicarbonate, 0.01% Tween 20, pH 9.5;
(§6) 6) 10 mM Sodium Bicarbonate, 500 mM Sodium Chloride, 0.01% Tween 20, pH 9.5; or […]

human plasma IgG2 = molecular target: T2, human plasma IgG2 (Homo sapiens, UniProt P01859); experiment: as above
T2 construct: the individual human plasma IgG isoforms: IgG1, IgG2, IgG3, or IgG4; purchased Calbiochem; host or cells: human plasma
T2 sequence (P01859 1-326 isoform P01859-1): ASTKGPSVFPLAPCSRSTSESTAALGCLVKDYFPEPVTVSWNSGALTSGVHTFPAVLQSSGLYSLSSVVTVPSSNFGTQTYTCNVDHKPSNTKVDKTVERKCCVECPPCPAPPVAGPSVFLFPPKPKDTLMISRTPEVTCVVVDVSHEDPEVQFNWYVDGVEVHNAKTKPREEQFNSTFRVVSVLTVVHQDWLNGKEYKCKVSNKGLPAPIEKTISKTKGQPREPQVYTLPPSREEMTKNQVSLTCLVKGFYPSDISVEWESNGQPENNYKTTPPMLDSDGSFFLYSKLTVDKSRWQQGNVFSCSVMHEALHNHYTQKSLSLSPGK
Method: as §1, §2, §3, §4, §5, §6

human plasma IgG3 = molecular target: T3, human plasma IgG3 (Homo sapiens, UniProt P01860); experiment: as above
T3 construct: the individual human plasma IgG isoforms: IgG1, IgG2, IgG3, or IgG4; purchased Calbiochem; host or cells: human plasma
T3 sequence (P01860 1-377 isoform P01860-1): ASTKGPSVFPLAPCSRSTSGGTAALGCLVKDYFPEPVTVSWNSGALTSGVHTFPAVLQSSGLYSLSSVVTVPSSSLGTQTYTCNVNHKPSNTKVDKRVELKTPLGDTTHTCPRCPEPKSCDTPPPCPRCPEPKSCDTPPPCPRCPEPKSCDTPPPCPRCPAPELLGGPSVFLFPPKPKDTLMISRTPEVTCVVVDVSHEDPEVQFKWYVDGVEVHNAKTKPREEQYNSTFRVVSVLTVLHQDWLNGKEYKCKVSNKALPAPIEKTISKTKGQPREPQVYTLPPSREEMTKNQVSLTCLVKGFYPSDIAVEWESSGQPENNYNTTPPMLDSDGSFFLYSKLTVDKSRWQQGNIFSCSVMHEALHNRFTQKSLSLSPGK
Method: as §1, §2, §3, §4, §5, §6

human plasma IgG4 = molecular target: T4, human plasma IgG4 (Homo sapiens, UniProt P01861); experiment: as above
T4 construct: the individual human plasma IgG isoforms: IgG1, IgG2, IgG3, or IgG4; purchased Calbiochem; host or cells: human plasma
T4 sequence (P01861 1-327 isoform P01861-1): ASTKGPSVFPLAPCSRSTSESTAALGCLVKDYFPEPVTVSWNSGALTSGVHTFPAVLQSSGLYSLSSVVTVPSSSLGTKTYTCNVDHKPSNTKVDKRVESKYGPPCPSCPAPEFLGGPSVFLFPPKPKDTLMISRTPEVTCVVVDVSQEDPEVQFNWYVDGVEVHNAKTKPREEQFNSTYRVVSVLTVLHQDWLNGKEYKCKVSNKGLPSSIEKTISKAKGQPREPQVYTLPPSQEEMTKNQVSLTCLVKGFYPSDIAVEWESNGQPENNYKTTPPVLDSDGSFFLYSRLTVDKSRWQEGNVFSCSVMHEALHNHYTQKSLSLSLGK
Method: as §1, §2, §3, §4, §5, §6

human IgG1 = molecular target: T5, human IgG1 (Homo sapiens, UniProt P01857); type: binding; details: Table 18; average ligand density 1.9 μmole/ml
T5 construct: all human subtypes derived from myeloma patients; purchased Calbiochem 400120; host or cells: myeloma patients
T5 sequence (P01857 1-330 isoform P01857-1): as the sequence (P01857 1-330 isoform P01857-1) above
Method: (§7) In addition, the following targets, all unfractionated IgGs, were also evaluated with selected immobilized peptides for species specificity characterization in a similar format: human IgG, goat IgG, bovine IgG, and mouse IgG (Sigma, product nos. I4506, I5256, I5506, and I15381, respectively). In addition, 10 μl aliquots of hydrolyzed NHS-activated Sepharose 4 Fast Flow (Amersham Pharmacia Biotech, product no. 17-0906-01) and immobilized recombinant Protein A (RepliGen Corp., product no. IPA-400) were also assayed as negative and positive controls. IgG targets were diluted into 10 mM phosphate buffer containing 150 mM NaCl and 0.01% Tween 20, pH 7.2 (PBST) or 50 mM Tris buffer containing, 150 mM NaCl and 0.01% Tween-20, pH 7.5 (TBST). Batch (static) binding and elution studies were conducted in a 96-well assay filterplate (Millipore MultiScreen-HV, with 0.45 μm Durapore membrane, product no. MAHVN4510). The target was allowed to incubate with the resin for 1-1.5 hours with shaking at room temperature. Unbound target was collected by centrifugation of samples from the assay plate directly into a low-UV absorbing 96-well collection plate (Costar, product no. 3635 or Greiner, product no. 655801). The unbound target was then quantitated by reading the absorbance at 280 nm (normalized to 1 cm pathlength, 1.4 mg/ml A280 extinction coefficient) of the collection plate on a microplate spectrophotometer (Molecular Devices Corp., SPECTRAmax PLUS) against a buffer blank.
(§8) The percentage bound target was determined by subtracting the mass determined as unbound from the corresponding condition's control values (control non-filtered added directly to the collection plate and/or the negative control). The assay plate was washed (3×) with 200 μl of binding buffer by vacuum filtration followed by addition of 100 μl of various elution conditions (e.g.: 0.1 M sodium bicarbonate buffer, pH 8.5 and/or 0.1 M sodium citrate buffer, pH 4.0). After a 30-60 minute incubation with shaking at room temperature, the eluted target was collected by centrifugation of the assay plate into another collection plate and quantitated in a similar manner. Percent elution of total load was then determined to characterize elution recovery efficiency under various conditions. The assay plate was then washed (3×) with 200 μl of binding buffer by vacuum filtration followed by addition of a resin cleaning condition (e.g., 0.1M CAPS buffer (3-[Cyclohexylamino]-1-propane-sulfonic acid), pH 11.5, to regenerate the resin for re-use. Percentage mass balance determination was calculated to be 90-100% on average.

human IgG2 = molecular target: T6, human IgG2 (Homo sapiens, UniProt P01859); type: binding; details: Table 18; average ligand density 1.9 μmole/ml
T6 construct: all human subtypes derived from myeloma patients; purchased Calbiochem 400122; host or cells: myeloma patients
T6 sequence (P01859 1-326 isoform P01859-1): as the sequence (P01859 1-326 isoform P01859-1) above
Method: as §7, §8

human IgG [1] = type: binding; details: Table 18; average ligand density 1.9 μmole/ml
Method: as §7, §8

human IgG [2] = experiment: Static (filterplate) binding capacity; details: 25 mg human IgG applied per ml resin
Method: These media were used to determine the effect of ligand density on human IgG binding capacity in both static (filterplate) and dynamic (mini-column) modes with commercial immobilized recombinant Protein A (Repligen, IPA400) at a single density as control. Actual ligand densities obtained ranged from 0.17 to 3.2 μmole/ml media as confirmed by quantitative amino acid analysis.
After incubation of the samples, with shaking, at room temperature for one hour, the supernatant liquid from each well, containing unbound IgG, was collected by centrifugation into the cognate well of a collection plate. The assay plate was washed three times with PBST (200 μl/wash) and bound IgG was eluted from the media samples by incubation for 30-60 minutes at room temperature in 100 μl Elution Buffer (100 mM CAPS, pH 11.5). Eluates were collected by centrifugation for analysis. Protein concentrations were determined from A280 measurements and plotted as a function of mg human IgG bound per ml resin vs. mg human IgG applied per ml resin.
The amount of IgG captured (estimated from IgG recovered in the elution step) by the various media is dependent upon both the IgG concentration and the ligand density. […] Under these static conditions, where both ligand and target concentrations are close to KD values, equilibrium binding is established and total capacities cannot be accurately determined. However, over the IgG range of 0 to 25 mg IgG applied per ml resin (0 to 2.5 mg/ml target added to 10 μl of resin), capture of IgG is linear. Beyond this point, up to a level of 200 mg IgG applied per ml resin, saturation becomes more pronounced.

IgG4 = IgG4 (Homo sapiens, UniProt P01861); type: binding; set-up: all human subtypes derived from myeloma patients; purchased Calbiochem 400126; host or cells: myeloma patients; details: Table 18; average ligand density 1.9 μmole/ml
Chain of IgG4 (P01861 1-327 isoform P01861-1): as the sequence (P01861 1-327 isoform P01861-1) above
Method: as §7, §8

CC(=O)N[C@@H](C)C(=O)NCC(=O)N[C@@H](Cc1ccc(O)cc1)C(=O)N[C@@H](Cc1c[nH]c2ccccc12)C(=O)N[C@@H](Cc1ccc(O)cc1)C(=O)N[C@H]1CSSC[C@@H](C(=O)N2CCC[C@H]2C(=O)N[C@@H](CC(C)C)C(=O)N[C@@H](Cc2ccc(O)cc2)C(=O)N2CCC[C@H]2C(=O)NCC(=O)N2CCC[C@H]2C(=O)N[C@@H](CCC(=O)O)C(=O)NCC(=O)NCC(=O)NCC(=O)N[C@@H](CCCCN)C(N)=O)NC(=O)[C@H](CCC(=O)O)NC(=O)[C@@H]2CCCN2C(=O)[C@H](CCCNC(=N)N)NC(=O)[C@H](CC(=O)O)NC(=O)[C@@H]2CCCN2C(=O)[C@H](Cc2ccccc2)NC(=O)[C@H](Cc2c[nH]c3ccccc23)NC1=O [DX413] (Ac-AGYWYCWFPDRPECPLYPGPEGGGK-NH2; disulfide 6-14 (inferred))
Kd (human plasma IgG1; 10 nM Tris-HCl, 500 mM Sodium Chloride, pH 7.5, read-out: KD (μM) IgG1 pH 7.5 + salt): > 10 µM
Kd (human plasma IgG1; 10 mM Sodium Bicarbonate, 500 mM Sodium Chloride, pH 9.5, read-out: KD (μM) IgG1 pH 9.5 + salt): > 10 µM
Kd (human plasma IgG1; 10 mM Sodium Bicarbonate, pH 9.5, read-out: KD (μM) IgG1 pH 9.5 − salt): > 10 µM
Kd (human plasma IgG1; 10 mM Sodium Citrate, 500 mM Sodium Chloride, pH 4.0, read-out: KD (μM) IgG1 pH 4.0 + salt): > 10 µM
Kd (human plasma IgG1; 10 mM Sodium Citrate, pH 4.0, read-out: KD (μM) IgG1 pH 4.0 − salt): > 10 µM
Kd (human plasma IgG1; 10 mM Tris-HCl, pH 7.5, read-out: KD (μM) IgG1 pH 7.5 − salt): > 10 µM
Kd (human plasma IgG2; 10 nM Tris-HCl, 500 mM Sodium Chloride, pH 7.5, read-out: KD (μM) IgG2 pH 7.5 + salt): > 10 µM
Kd (human plasma IgG2; 10 mM Sodium Bicarbonate, 500 mM Sodium Chloride, pH 9.5, read-out: KD (μM) IgG2 pH 9.5 + salt): > 10 µM
Kd (human plasma IgG2; 10 mM Sodium Bicarbonate, pH 9.5, read-out: KD (μM) IgG2 pH 9.5 − salt): > 10 µM
Kd (human plasma IgG2; 10 mM Sodium Citrate, 500 mM Sodium Chloride, pH 4.0, read-out: KD (μM) IgG2 pH 4.0 + salt): > 10 µM
Kd (human plasma IgG2; 10 mM Sodium Citrate, pH 4.0, read-out: KD (μM) IgG2 pH 4.0 − salt): > 10 µM
Kd (human plasma IgG2; 10 mM Tris-HCl, pH 7.5, read-out: KD (μM) IgG2 pH 7.5 − salt): > 10 µM
Kd (human plasma IgG3; 10 nM Tris-HCl, 500 mM Sodium Chloride, pH 7.5, read-out: KD (μM) IgG3 pH 7.5 + salt): > 10 µM
Kd (human plasma IgG3; 10 mM Sodium Bicarbonate, 500 mM Sodium Chloride, pH 9.5, read-out: KD (μM) IgG3 pH 9.5 + salt): > 10 µM
Kd (human plasma IgG3; 10 mM Sodium Bicarbonate, pH 9.5, read-out: KD (μM) IgG3 pH 9.5 − salt): > 10 µM
Kd (human plasma IgG3; 10 mM Sodium Citrate, 500 mM Sodium Chloride, pH 4.0, read-out: KD (μM) IgG3 pH 4.0 + salt): ~1 µM
Kd (human plasma IgG3; 10 mM Sodium Citrate, pH 4.0, read-out: KD (μM) IgG3 pH 4.0 − salt): ~1 µM
Kd (human plasma IgG3; 10 mM Tris-HCl, pH 7.5, read-out: KD (μM) IgG3 pH 7.5 − salt): > 10 µM
Kd (human plasma IgG4; 10 nM Tris-HCl, 500 mM Sodium Chloride, pH 7.5, read-out: KD (μM) IgG4 pH 7.5 + salt): > 10 µM
Kd (human plasma IgG4; 10 mM Sodium Bicarbonate, 500 mM Sodium Chloride, pH 9.5, read-out: KD (μM) IgG4 pH 9.5 + salt): > 10 µM
Kd (human plasma IgG4; 10 mM Sodium Bicarbonate, pH 9.5, read-out: KD (μM) IgG4 pH 9.5 − salt): > 10 µM
Kd (human plasma IgG4; 10 mM Sodium Citrate, 500 mM Sodium Chloride, pH 4.0, read-out: KD (μM) IgG4 pH 4.0 + salt): > 10 µM
Kd (human plasma IgG4; 10 mM Sodium Citrate, pH 4.0, read-out: KD (μM) IgG4 pH 4.0 − salt): > 10 µM
Kd (human plasma IgG4; 10 mM Tris-HCl, pH 7.5, read-out: KD (μM) IgG4 pH 7.5 − salt): > 10 µM

Ac-GDDHMCVYTTWGELIWCDNH-X-Su-X-NH2 (Ac-GDDHMCVYTTWGELIWCDNH-{code X-Su-code X-NH2}; not fully specified (bridges); printed as Ac-GDDHMCVYTTWGELIWCDNH-X-Su-X-NH2; cysteine pairing not given here; reading uncertain) [DX909]
Batch Binding (% Capture of Total Load) hIgG1 (human IgG1): 66%
Batch Binding (% Capture of Total Load) hIgG2 (human IgG2): 54%
Batch Binding (% Capture of Total Load) hIgG (human IgG [1]): 49%
Decrease in apparent relative static capacity compared to DX249, DX877 and DX878 (human IgG [2]): ~2 fold
Batch Binding (% Capture of Total Load) hIgG4 (IgG4): 33%
